For two compounds, IC50 results are on record in US10392630B2, “Plants having increased tolerance to herbicides” (BASF AGRO B.V., priority 2013, dated 2019).

Substitutions are numbered along the chain they refer to.

What all share (assay): biochemical
The target in assay [1] is T1, Amaranthus mutant PPO (AMARE) (Amaranthus tuberculatus, UniProt Q0NZW9, F420M/R128I).
T1 sequence (Q0NZW9 1-534 R128I/F420M): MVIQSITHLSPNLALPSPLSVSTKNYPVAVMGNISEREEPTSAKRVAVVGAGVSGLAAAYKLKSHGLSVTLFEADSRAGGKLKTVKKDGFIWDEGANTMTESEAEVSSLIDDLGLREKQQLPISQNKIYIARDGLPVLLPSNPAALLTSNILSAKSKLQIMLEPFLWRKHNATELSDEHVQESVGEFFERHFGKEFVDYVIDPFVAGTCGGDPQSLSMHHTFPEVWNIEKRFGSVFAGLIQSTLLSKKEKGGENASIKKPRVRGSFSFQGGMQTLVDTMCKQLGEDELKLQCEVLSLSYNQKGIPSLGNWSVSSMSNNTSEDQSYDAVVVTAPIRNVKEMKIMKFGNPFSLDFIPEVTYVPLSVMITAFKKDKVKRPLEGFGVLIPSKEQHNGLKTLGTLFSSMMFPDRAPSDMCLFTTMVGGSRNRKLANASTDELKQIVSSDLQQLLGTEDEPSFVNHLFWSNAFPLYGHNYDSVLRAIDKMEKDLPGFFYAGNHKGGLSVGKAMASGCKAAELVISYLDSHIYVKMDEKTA

In assay [2] the target is T2, Amaranthus mutant PPO (AMARE) (Amaranthus tuberculatus, UniProt Q0NZW9, F420L/R128I).
T2 sequence (Q0NZW9 1-534 R128I/F420L): T1 sequence (Q0NZW9 1-534 R128I/F420M) with M420L

Assay [3] addresses T3, Amaranthus mutant PPO (AMARE) (Amaranthus tuberculatus, UniProt Q0NZW9, F420V).
T3 sequence (Q0NZW9 1-534 F420V): T1 sequence (Q0NZW9 1-534 R128I/F420M) with I128R, M420V

Assay [4] addresses T4, Amaranthus mutant PPO (AMARE) (Amaranthus tuberculatus, UniProt Q0NZW9, F420L/R128A).
T4 sequence (Q0NZW9 1-534 R128A/F420L): T1 sequence (Q0NZW9 1-534 R128I/F420M) with I128A, M420L

Assay [5] addresses T5, Amaranthus mutant PPO (AMARE) (Amaranthus tuberculatus, UniProt Q0NZW9, F420V/R128I).
T5 sequence (Q0NZW9 1-534 R128I/F420V): T1 sequence (Q0NZW9 1-534 R128I/F420M) with M420V

As to `CC(C)N(C)S(=O)(=O)NC(=O)c1cc(-n2c(=O)cc(C(F)(F)F)n(C)c2=O)c(F)cc1Cl` [saflufenacil], the IC50 (usually the point on the concentration scale where inhibition reaches its midpoint) was more than 10000 nM in assay [1]; more than 10000 nM in assay [2]; 1590 nM in assay [3]; more than 10000 nM in assay [4]; more than 10000 nM in assay [5].

Regarding `C#CCN1C(=O)C(F)(F)Oc2cc(F)c(-n3c(=O)n(C)c(=S)n(C)c3=O)cc21` [BAS 850H], the IC50 in assay [1] worked out at 246 nM; in assay [2] it was 466 nM; in assay [3], 1.61 nM; in assay [4], 16.2 nM; in assay [5] it was 424 nM.
